Test results: patent US7125990B2, “Imidazolyl derivatives as corticotropin releasing factor inhibitors” (Bristol-Myers Squibb COmpany, priority 2001, dated 2006)

target: T1, CRF1 receptors (Homo sapiens, UniProt P34998); test: CRF1 receptor radioligand binding assay ([125I]-oCRF competition, IMR-32 cell membranes); details: IMR-32 cell membranes, [125I]-oCRF 100 pM; read-out: Ki (CRF-1R)
T1 construct: endogenous in cells; host or cells: IMR-32 cells, transformed with 2.5 µM 5'-bromo-2'-deoxyuridine for 10 days; membrane preparation
T1 sequence (P34998 24-415): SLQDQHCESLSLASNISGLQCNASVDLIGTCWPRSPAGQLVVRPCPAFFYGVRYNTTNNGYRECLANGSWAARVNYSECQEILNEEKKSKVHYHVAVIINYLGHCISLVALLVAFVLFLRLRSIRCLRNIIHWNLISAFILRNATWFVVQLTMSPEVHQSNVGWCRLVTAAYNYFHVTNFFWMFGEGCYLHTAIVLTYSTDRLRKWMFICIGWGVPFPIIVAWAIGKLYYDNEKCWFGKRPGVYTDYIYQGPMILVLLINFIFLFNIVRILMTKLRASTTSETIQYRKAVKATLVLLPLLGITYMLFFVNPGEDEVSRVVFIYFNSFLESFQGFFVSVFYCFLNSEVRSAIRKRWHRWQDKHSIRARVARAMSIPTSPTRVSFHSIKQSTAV
Summary of the method: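 Buffer: Tris pH 7.2 with MgCl2, BSA, Triton X-100, aprotinin, leupeptin; reaction stopped with ice-cold wash and filtered. Nonspecific binding set with 10 μM oCRF.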

Ki | Compound
< 1000 nM | Cc1cc(C)c(N2CCCn3c2nc(C(F)(F)F)c3CN(CCc2ccccc2)CCC(F)(F)F)c(C)c1 [Example 81, Phenethyl-[2-trifluoromethyl-8-(2,4,6-trimethyl-phenyl)-5,6,7,8-tetrahydro-imidazo[1,2-a]pyrimidin-3-ylmethyl]-(3,3,3-trifluoro-propyl)-amine]
< 1000 nM | CCCN(CCC1CC1)Cc1c(C(F)(F)F)nc2n1CCCN2c1c(C)cc(C)cc1C [Example 87, (2-Cyclopropyl-ethyl)-propyl-[2-trifluoromethyl-8-(2,4,6-trimethyl-phenyl)-5,6,7,8-tetrahydro-imidazo[1,2-a]pyrimidin-3-ylmethyl]-amine]
< 1000 nM | CCN(CCC1CC1)Cc1c(C(F)(F)F)nc2n1CCCN2c1c(C)cc(C)cc1C [Example 88, (2-Cyclopropyl-ethyl)-ethyl-[2-trifluoromethyl-8-(2,4,6-trimethyl-phenyl)-5,6,7,8-tetrahydro-imidazo[1,2-a]pyrimidin-3-ylmethyl]-amine]
< 1000 nM | Cc1cc(C)c(N2CCCn3c2nc(C(F)(F)F)c3CN(CCC(F)(F)F)Cc2ccc(F)cc2)c(C)c1 [Example 91, (4-Fluoro-benzyl)-[2-trifluoromethyl-8-(2,4,6-trimethyl-phenyl)-5,6,7,8-tetrahydro-imidazo[1,2-a]pyrimidin-3-ylmethyl]-(3,3,3-trifluoro-propyl)-amine]
< 1000 nM | CCCN(Cc1ccc(Cl)cc1)Cc1c(C(F)(F)F)nc2n1CCCN2c1c(C)cc(C)cc1C [Example 94, (4-Chloro-benzyl)-propyl-[2-trifluoromethyl-8-(2,4,6-trimethyl-phenyl)-5,6,7,8-tetrahydro-imidazo[1,2-a]pyrimidin-3-ylmethyl]-amine]
< 100 nM | C=CCN(CCC)Cc1c(C(F)(F)F)nc2n1CCCN2c1c(C)cc(C)cc1C [Example 95, Allyl-propyl-[2-trifluoromethyl-8-(2,4,6-trimethyl-phenyl)-5,6,7,8-tetrahydro-imidazo[1,2-a]pyrimidin-3-ylmethyl]-amine]
< 100 nM | CCCN(Cc1c(C(F)(F)F)nc2n1CCCN2c1c(C)cc(C)cc1Cl)CC1CC1 [Example 96, [8-(2-Chloro-4,6-dimethyl-phenyl)-2-trifluoromethyl-5,6,7,8-tetrahydro-imidazo[1,2-a]pyrimidin-3-ylmethyl]-cyclopropylmethyl-propyl-amine]
< 1000 nM | Cc1cc(C)c(N2CCCn3c2nc(C(F)(F)F)c3CN2CCOCC2)c(Cl)c1 [Example 97, 8-(2-Chloro-4,6-dimethyl-phenyl)-3-morpholin-4-ylmethyl-2-trifluoromethyl-5,6,7,8-tetrahydro-imidazo[1,2-a]pyrimidine]
< 1000 nM | Cc1cc(C)c(N2CCCn3c2nc(C(F)(F)F)c3CN2CCCCC2C)c(Cl)c1 (stereo not shown) [Example 100, 8-(2-Chloro-4,6-dimethyl-phenyl)-3-(2-methyl-piperidin-1-ylmethyl)-2-trifluoromethyl-5,6,7,8-tetrahydro-imidazo[1,2-a]pyrimidine]
< 1000 nM | Cc1cc(C)c(N2CCCn3c2nc(C(F)(F)F)c3CN2CCC(C)CC2)c(Cl)c1 [Example 102, 8-(2-Chloro-4,6-dimethyl-phenyl)-3-(4-methyl-piperidin-1-ylmethyl)-2-trifluoromethyl-5,6,7,8-tetrahydro-imidazo[1,2-a]pyrimidine]
< 100 nM | C=CCN(CC=C)Cc1c(C(F)(F)F)nc2n1CCCN2c1c(C)cc(C)cc1Cl [Example 103, Diallyl-[8-(2-chloro-4,6-dimethyl-phenyl)-2-trifluoromethyl-5,6,7,8-tetrahydro-imidazo[1,2-a]pyrimidin-3-ylmethyl]-amine]
< 1000 nM | CCCCN(Cc1ccccc1)Cc1c(C(F)(F)F)nc2n1CCCN2c1c(C)cc(C)cc1Cl [Example 105, Benzyl-butyl-[8-(2-chloro-4,6-dimethyl-phenyl)-2-trifluoromethyl-5,6,7,8-tetrahydro-imidazo[1,2-a]pyrimidin-3-ylmethyl]-amine]
< 1000 nM | Cc1cc(C)c(N2CCCn3c2nc(C(F)(F)F)c3CN(C)Cc2ccccc2)c(Cl)c1 [Example 107, Benzyl-[8-(2-chloro-4,6-dimethyl-phenyl)-2-trifluoromethyl-5,6,7,8-tetrahydro-imidazo[1,2-a]pyrimidin-3-ylmethyl]-methyl-amine]
< 1000 nM | CCCCN(CC)Cc1c(C(F)(F)F)nc2n1CCCN2c1c(C)cc(C)cc1Cl [Example 108, Butyl-[8-(2-chloro-4,6-dimethyl-phenyl)-2-trifluoromethyl-5,6,7,8-tetrahydro-imidazo[1,2-a]pyrimidin-3-ylmethyl]-ethyl-amine]

Second part, the compound before the results:

Compound | Ki
Cc1cc(C)c(N2CCCn3c2nc(C(F)(F)F)c3CN(CCc2ccccc2)CC(F)(F)F)c(C)c1 [Example 82, Phenethyl-(2,2,2-trifluoro-ethyl)-[2-trifluoromethyl-8-(2,4,6-trimethyl-phenyl)-5,6,7,8-tetrahydro-imidazo[1,2-a]pyrimidin-3-ylmethyl]-amine] | < 100 nM
CCCN(CCc1ccccc1)Cc1c(C(F)(F)F)nc2n1CCCN2c1c(C)cc(C)cc1C [Example 83, Phenethyl-propyl-[2-trifluoromethyl-8-(2,4,6-trimethyl-phenyl)-5,6,7,8-tetrahydro-imidazo[1,2-a]pyrimidin-3-ylmethyl]-amine] | < 100 nM
CCN(CCc1ccccc1)Cc1c(C(F)(F)F)nc2n1CCCN2c1c(C)cc(C)cc1C [Example 84, Ethyl-phenethyl-[2-trifluoromethyl-8-(2,4,6-trimethyl-phenyl)-5,6,7,8-tetrahydro-imidazo[1,2-a]pyrimidin-3-ylmethyl]-amine] | < 1000 nM
Cc1cc(C)c(N2CCCn3c2nc(C(F)(F)F)c3CN(Cc2ccccc2)CC(F)(F)F)c(C)c1 [Example 85, Benzyl-(2,2,2-trifluoro-ethyl)-[2-trifluoromethyl-8-(2,4,6-trimethyl-phenyl)-5,6,7,8-tetrahydro-imidazo[1,2-a]pyrimidin-3-ylmethyl]-amine] | < 10000 nM
Cc1cc(C)c(N2CCCn3c2nc(C(F)(F)F)c3CN(CCC(F)(F)F)Cc2ccccc2)c(C)c1 [Example 86, Benzyl-[2-trifluoromethyl-8-(2,4,6-trimethyl-phenyl)-5,6,7,8-tetrahydro-imidazo[1,2-a]pyrimidin-3-ylmethyl]-(3,3,3-trifluoro-propyl)-amine] | < 1000 nM
Cc1cc(C)c(N2CCCn3c2nc(C(F)(F)F)c3CN(CCC2CC2)CCC(F)(F)F)c(C)c1 [Example 89, (2-Cyclopropyl-ethyl)-[2-trifluoromethyl-8-(2,4,6-trimethyl-phenyl)-5,6,7,8-tetrahydro-imidazo[1,2-a]pyrimidin-3-ylmethyl]-(3,3,3-trifluoro-propyl)-amine] | < 1000 nM
Cc1cc(C)c(N2CCCn3c2nc(C(F)(F)F)c3CN(CCC2CC2)CC(F)(F)F)c(C)c1 [Example 90, (2-Cyclopropyl-ethyl)-(2,2,2-trifluoro-ethyl)-[2-trifluoromethyl-8-(2,4,6-trimethyl-phenyl)-5,6,7,8-tetrahydro-imidazo[1,2-a]pyrimidin-3-ylmethyl]-amine] | < 1000 nM
CCCN(Cc1ccc(F)cc1)Cc1c(C(F)(F)F)nc2n1CCCN2c1c(C)cc(C)cc1C [Example 92, (4-Fluoro-benzyl)-propyl-[2-trifluoromethyl-8-(2,4,6-trimethyl-phenyl)-5,6,7,8-tetrahydro-imidazo[1,2-a]pyrimidin-3-ylmethyl]-amine] | < 1000 nM
Cc1cc(C)c(N2CCCn3c2nc(C(F)(F)F)c3CN(CCC(F)(F)F)Cc2ccc(Cl)cc2)c(C)c1 [Example 93, (4-Chloro-benzyl)-[2-trifluoromethyl-8-(2,4,6-trimethyl-phenyl)-5,6,7,8-tetrahydro-imidazo[1,2-a]pyrimidin-3-ylmethyl]-(3,3,3-trifluoro-propyl)-amine] | < 100 nM
Cc1cc(C)c(N2CCCn3c2nc(C(F)(F)F)c3CN2CCSCC2)c(Cl)c1 [Example 98, 8-(2-Chloro-4,6-dimethyl-phenyl)-3-thiomorpholin-4-ylmethyl-2-trifluoromethyl-5,6,7,8-tetrahydro-imidazo[1,2-a]pyrimidine] | < 1000 nM
Cc1cc(C)c(N2CCCn3c2nc(C(F)(F)F)c3CN2CCCCC2)c(Cl)c1 [Example 99, 8-(2-Chloro-4,6-dimethyl-phenyl)-3-piperidin-1-ylmethyl-2-trifluoromethyl-5,6,7,8-tetrahydro-imidazo[1,2-a]pyrimidine] | < 1000 nM
Cc1cc(C)c(N2CCCn3c2nc(C(F)(F)F)c3CN2CCCC(C)C2)c(Cl)c1 (stereo not shown) [Example 101, 8-(2-Chloro-4,6-dimethyl-phenyl)-3-(3-methyl-piperidin-1-ylmethyl)-2-trifluoromethyl-5,6,7,8-tetrahydro-imidazo[1,2-a]pyrimidine] | < 1000 nM
CCCCN(C)Cc1c(C(F)(F)F)nc2n1CCCN2c1c(C)cc(C)cc1Cl [Example 104, Butyl-[8-(2-chloro-4,6-dimethyl-phenyl)-2-trifluoromethyl-5,6,7,8-tetrahydro-imidazo[1,2-a]pyrimidin-3-ylmethyl]-methyl-amine] | < 1000 nM
C=C(C)CN(CC)Cc1c(C(F)(F)F)nc2n1CCCN2c1c(C)cc(C)cc1Cl [Example 106, [8-(2-Chloro-4,6-dimethyl-phenyl)-2-trifluoromethyl-5,6,7,8-tetrahydro-imidazo[1,2-a]pyrimidin-3-ylmethyl]-ethyl-(2-methyl-allyl)-amine] | < 1000 nM
